Source: patent US20050239806A1, “Pyrrolopyrimidine derivatives and analogs and their use in the treatment and prevention of diseases” (Ambit Biosciences Corporation, priority 2004, published 2005)

What was measured:
[1] = target: T1, human EGFR (wildtype), EGFR(DKIN) (Homo sapiens, UniProt P00533); experiment: Binding of wildtype-EGFR (T7 phage-displayed kinase competition binding)
T1 construct: Kd for EGFR(DKIN); made in house
Source text: Methods for measuring binding affinities for interactions between small molecules and kinases including FLT3, c-KIT, ABL([…]) [a.k.a. ABL([…])], VEGFR-2 (a.k.a. KDR), and EGFR are described in detail in U.S. application Ser. No. 10/873,835, which is incorporated by reference herein in its entirety. The components of the assays include human kinases expressed as fusions to T7 bacteriophage particles and immobilized ligands that bind to the ATP site of the kinases. […] If the test compound binds the kinase it competes with the immobilized ligand and prevents binding to the solid support. […] The results are read out by quantitating the amount of fusion protein bound to the solid support, which is accomplished by either traditional phage plaque assays or by quantitative PCR (qPCR) using the phage genome as a template. […] The concentration of test molecule that reduces the number of phage bound to the solid support by 50% is equal to the Kd for the interaction between the kinase and the test molecule. Typically, data are collected for twelve concentrations of test compound and, the resultant binding curve is fit to a non-cooperative binding isotherm to calculate Kd. Described in the exemplary assays below is data from binding with varying kinases. […] The term “ND” represents non-determined values. […] The Kd for the interaction between the soluble compound (competitor) molecule and EGFR is equal to the concentration of soluble competitor molecule that causes a 50% reduction in the number of phage recovered in the eluate compared to a control sample lacking soluble competitor.

[2] = target: T2, EGFR (tyrosine 1173 phosphorylation) in Lung Cancer Cell Line A459 (Homo sapiens, UniProt P00533); experiment: EGFR Autophosphorylation Inhibition Assay in Lung Cancer Cell Line A459; format: cell-based; conditions: EGF-induced phosphorylation of tyrosine 1173
T2 construct: endogenous in cells
Protocol: (§1) Tyrosine 1173 is a major autophosphorylation site resulting from activation of EGFR by epidermal growth factor (EGF). To determine the capacity of a compound to inhibit this phosphorylation activity of EGFR upon itself, the following methodology was used: 4×10^4 A431 cells/well in a 96-well culture plate or 3.6×10^5 A549 cells/well in a 24-well culture plate were cultured overnight at 37° C. in 5% CO2 in low serum culture medium (DMEM supplemented with 0.5% fetal calf serum, 4.500 mg/L glucose and 100 units/ml penicillin-streptomycin). After 16 hours, the cells were pre-incubated in eight serial 3-fold dilutions of test compound (3.3 μM-0.0017 μM) in addition to vehicle control (final concentration on DMSO vehicle was 1%) for two hours. Cells were stimulated by the addition of 5 ng/ml of EGF for five minutes. Cells were then washed with cold phosphate buffered saline (PBS), and incubated for 30 minutes at 4° C. in lysis buffer. Subsequently, the samples were centrifuged at 6000× RCF for 15 minutes, and the level of phosphorylation of EGFR tyrosine 1173 was measured using a sandwich enzyme-linked immunosorbent assay following the manufacturer's recommended protocols (Biosource, Camarillo, Calif.). Total EGFR levels were also measured in the same manner to control for protein level differences. The reported values are those concentrations of compound required to inhibit EGF-induced phosphorylation of tyrosine 1173 by 50%.

[3] = target: T3, EGFR (tyrosine 1173 phosphorylation) in A431 cells (Homo sapiens, UniProt P00533); experiment: EGFR Autophosphorylation Inhibition Assay in Epidermoid Carcinoma Cell Line A431; format: cell-based; conditions: EGF-induced phosphorylation of tyrosine 1173
T3 construct: endogenous in cells; host or cells: A431
Protocol: as §1

T2 sequence (P00533 25-1210): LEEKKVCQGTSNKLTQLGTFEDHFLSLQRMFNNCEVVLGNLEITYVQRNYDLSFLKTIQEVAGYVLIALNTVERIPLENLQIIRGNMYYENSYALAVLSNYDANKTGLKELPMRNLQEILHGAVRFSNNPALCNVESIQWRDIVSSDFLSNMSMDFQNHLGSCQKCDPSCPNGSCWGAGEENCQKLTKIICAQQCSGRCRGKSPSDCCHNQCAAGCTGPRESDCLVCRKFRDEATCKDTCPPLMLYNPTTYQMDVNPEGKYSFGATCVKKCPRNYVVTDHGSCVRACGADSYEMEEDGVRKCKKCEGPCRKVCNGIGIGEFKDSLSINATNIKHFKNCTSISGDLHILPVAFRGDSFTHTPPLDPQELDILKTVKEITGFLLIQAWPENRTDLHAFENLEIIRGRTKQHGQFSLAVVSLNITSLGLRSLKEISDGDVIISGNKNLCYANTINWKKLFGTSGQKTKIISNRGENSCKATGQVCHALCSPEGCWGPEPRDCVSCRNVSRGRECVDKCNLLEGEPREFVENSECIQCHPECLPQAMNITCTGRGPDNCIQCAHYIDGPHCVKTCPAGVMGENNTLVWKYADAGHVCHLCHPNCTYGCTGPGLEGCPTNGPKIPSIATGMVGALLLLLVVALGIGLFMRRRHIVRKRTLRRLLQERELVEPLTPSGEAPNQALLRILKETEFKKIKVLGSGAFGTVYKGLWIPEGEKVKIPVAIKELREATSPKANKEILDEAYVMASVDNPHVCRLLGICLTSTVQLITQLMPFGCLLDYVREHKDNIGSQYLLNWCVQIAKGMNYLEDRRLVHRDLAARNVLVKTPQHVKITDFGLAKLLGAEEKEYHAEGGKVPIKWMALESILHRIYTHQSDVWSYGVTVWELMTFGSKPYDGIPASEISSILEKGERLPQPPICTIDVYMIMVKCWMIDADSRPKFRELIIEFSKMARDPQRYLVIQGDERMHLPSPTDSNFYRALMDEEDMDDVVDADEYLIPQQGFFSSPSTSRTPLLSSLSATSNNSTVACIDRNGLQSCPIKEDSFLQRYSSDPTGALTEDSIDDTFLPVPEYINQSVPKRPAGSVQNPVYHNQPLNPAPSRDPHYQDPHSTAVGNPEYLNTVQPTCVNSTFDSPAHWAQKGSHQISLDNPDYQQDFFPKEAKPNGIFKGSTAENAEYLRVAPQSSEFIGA
T3 sequence (P00533 25-1210): as above
T1 sequence (P00533 712-979 limits assumed): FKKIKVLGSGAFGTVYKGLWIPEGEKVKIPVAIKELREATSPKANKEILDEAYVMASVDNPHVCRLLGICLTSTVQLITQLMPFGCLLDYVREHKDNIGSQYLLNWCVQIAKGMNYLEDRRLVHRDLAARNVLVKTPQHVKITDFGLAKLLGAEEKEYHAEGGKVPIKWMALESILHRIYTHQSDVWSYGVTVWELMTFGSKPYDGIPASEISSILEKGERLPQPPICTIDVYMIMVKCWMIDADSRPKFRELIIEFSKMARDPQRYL

COc1ccc(-c2cc3c(Sc4ccc(Cl)c(Cl)c4)ncnc3[nH]2)cc1 [Compound J3]
Kd [1]: 100 to 1000 nM

Oc1ccc(-c2cc3c(Sc4ccc(F)cc4)ncnc3[nH]2)cc1 [Compound L8]
IC50 [2]: 1000 to 10000 nM
IC50 [3]: < 100 nM
Kd [1]: < 100 nM

COc1cccc(-c2cc3c(Oc4cccc(Br)c4)ncnc3[nH]2)c1 [Compound D19]
IC50 [2]: 1000 to 10000 nM
IC50 [3]: 100 to 1000 nM
Kd [1]: < 100 nM

COc1cccc(Sc2ncnc3[nH]c(-c4cccc(OC)c4)cc23)c1 [Compound J26]
Kd [1]: 100 to 1000 nM

COc1cccc(-c2cc3c(Oc4cccc(C(F)(F)F)c4)ncnc3[nH]2)c1 [Compound D21]
Kd [1]: 100 to 1000 nM

COc1cccc(-c2cc3c(Sc4ccccc4Cl)ncnc3[nH]2)c1 [Compound J19]
IC50 [2]: 1000 to 10000 nM
IC50 [3]: 1000 to 10000 nM
Kd [1]: < 100 nM

COc1ccc(-c2cc3c(Sc4cccc(OC)c4)ncnc3[nH]2)cc1 [Compound J9]
Kd [1]: 100 to 1000 nM

Cc1cc(C)cc(Oc2ncnc3[nH]c(-c4ccc(O)cc4)cc23)c1 [Compound E2]
Kd [1]: < 100 nM

COc1cccc(Sc2ncnc3oc(-c4ccccc4)c(-c4ccccc4)c23)c1 [Compound N12]
Kd [1]: 100 to 1000 nM

Cc1cccc(Sc2ncnc3[nH]c(-c4ccc(O)cc4)cc23)c1 [Compound L5]
IC50 [2]: 1000 to 10000 nM
IC50 [3]: < 100 nM
Kd [1]: < 100 nM

COc1cccc(-c2cc3c(Sc4cc(Cl)cc(Cl)c4)ncnc3[nH]2)c1 [Compound J21]
Kd [1]: > 10000 nM

Cc1ccc(-c2cc3c(Sc4cccc(F)c4)ncnc3[nH]2)cc1 [Compound J17]
Kd [1]: 100 to 1000 nM

COc1cccc(-c2cc3c(Sc4cccc(Br)c4)ncnc3[nH]2)c1 [Compound J23]
IC50 [2]: 100 to 1000 nM
IC50 [3]: 100 to 1000 nM
Kd [1]: < 100 nM

COc1cccc(-c2cc3c(Sc4cccc(F)c4)ncnc3[nH]2)c1 [Compound J25]
IC50 [2]: 1000 to 10000 nM
IC50 [3]: 100 to 1000 nM
Kd [1]: < 100 nM

COc1cccc(-c2cc3c(Sc4cccc(C)c4)ncnc3[nH]2)c1 [Compound J27]
IC50 [2]: 1000 to 10000 nM
IC50 [3]: 100 to 1000 nM
Kd [1]: 100 to 1000 nM

Oc1ccc(-c2cc3c(Sc4cccc(F)c4)ncnc3[nH]2)cc1 [Compound L3]
IC50 [2]: 1000 to 10000 nM
IC50 [3]: < 100 nM
Kd [1]: < 100 nM

COc1ccc(-c2cc3c(Sc4cccc(F)c4)ncnc3[nH]2)cc1 [Compound J8]
IC50 [2]: 1000 to 10000 nM
IC50 [3]: 1000 to 10000 nM
Kd [1]: < 100 nM

COc1cccc(-c2cc3c(Sc4cc(C)cc(C)c4)ncnc3[nH]2)c1 [Compound J22]
Kd [1]: 100 to 1000 nM

Cc1ccc(Sc2ncnc3c2[nH]c2ccccc23)cc1 [Compound K15]
IC50 [3]: 100 to 1000 nM
Kd [1]: < 100 nM

COc1cccc(-c2cc3c(Oc4cc(C)cc(C)c4)ncnc3[nH]2)c1 [Compound D18]
Kd [1]: 100 to 1000 nM

Clc1ccc(Sc2ncnc3[nH]ccc23)cc1Cl [Compound F3]
Kd [1]: 100 to 1000 nM

COc1ccc(-c2cc3c(Sc4ccccc4)ncnc3[nH]2)cc1 [Compound J16]
Kd [1]: 100 to 1000 nM

Oc1ccc(-c2cc3c(SCCc4ccccc4)ncnc3[nH]2)cc1 [Compound L1, 4-(4-Phenethylsulfanyl-7H-pyrrolo[2,3-d]pyrimidin-6-yl)-phenol]
Kd [1]: 1000 to 10000 nM

COc1ccc(-c2cc3c(Oc4cccc(Br)c4)ncnc3[nH]2)cc1 [Compound D3]
Kd [1]: 100 to 1000 nM

Oc1ccc(-c2cc3c(Oc4cc(Cl)cc(Cl)c4)ncnc3[nH]2)cc1 [Compound E1, 4-[4-(3,5-Dichloro-phenoxy)-7H-pyrrolo[2,3-d]pyrimidin-6-yl]-phenol]
IC50 [3]: 100 to 1000 nM
Kd [1]: 100 to 1000 nM

COc1ccc(Sc2ncnc3[nH]c(-c4ccc(O)cc4)cc23)cc1 [Compound L11]
Kd [1]: 100 to 1000 nM

COc1ccc(-c2cc3c(Sc4ccc(C)cc4)ncnc3[nH]2)cc1 [Compound J14]
IC50 [2]: 1000 to 10000 nM
IC50 [3]: 1000 to 10000 nM
Kd [1]: < 100 nM

COc1ccc(-c2cc3c(Sc4ccc(F)c(Cl)c4)ncnc3[nH]2)cc1 [Compound J37]
IC50 [3]: 100 to 1000 nM
Kd [1]: < 100 nM
